Measurements published in ChEMBL document CHEMBL5303573, “Mapping human microbiome drug metabolism by gut bacteria and their genes” (Nature, 2019).

What was measured:
[1] = bacteroides stercoris, 12 h, 2 µM
Description: The drug is tested on Bacteroides stercoris strain: ATCC43183 for biotransformation. The drug concentrations were measured before and after a 12-h incubation by liquid-chromatography-coupled mass spectrometry (LC–MS)

[2] = bacteroides eggerthii, 12 h, 2 µM
Description: The drug is tested on Bacteroides eggerthii strain: DSM20697 for biotransformation. The drug concentrations were measured before and after a 12-h incubation by liquid-chromatography-coupled mass spectrometry (LC–MS)

[3] = The drug is tested on Bacteroides dorei strain: DSM17855 for biotransformation. The drug concentrations were measured before and after a 12-h incubation by liquid-chromatography-coupled mass spectrometry (LC–MS); settings: phocaeicola dorei, 2 µM
[4] = limosilactobacillus reuteri cf48-3a, 12 h, 2 µM
Description: The drug is tested on Lactobacillus reuteri CF48-3A strain: BEI HM-102 for biotransformation. The drug concentrations were measured before and after a 12-h incubation by liquid-chromatography-coupled mass spectrometry (LC–MS)

[5] = The drug is tested on Bacteroides pectinophilus strain: ATCC43243 for biotransformation. The drug concentrations were measured before and after a 12-h incubation by liquid-chromatography-coupled mass spectrometry (LC–MS); settings: 2 µM
[6] = The drug is tested on Anaerococcus hydrogenalis strain: DSM7454 for biotransformation. The drug concentrations were measured before and after a 12-h incubation by liquid-chromatography-coupled mass spectrometry (LC–MS); settings: 2 µM
[7] = The drug is tested on Providencia rettgeri strain: DSM1131 for biotransformation. The drug concentrations were measured before and after a 12-h incubation by liquid-chromatography-coupled mass spectrometry (LC–MS); format: ADME; parameters: dose 2 uM, timepoint 0 vs 12 hours; settings: 2 µM
[8] = The drug is tested on Anaerotruncus colihominis strain: DSM17241 for biotransformation. The drug concentrations were measured before and after a 12-h incubation by liquid-chromatography-coupled mass spectrometry (LC–MS); settings: 2 µM
[9] = The drug is tested on Clostridium sp. strain: fecal isolate for biotransformation. The drug concentrations were measured before and after a 12-h incubation by liquid-chromatography-coupled mass spectrometry (LC–MS); settings: 2 µM
[10] = The drug is tested on Bacteroides finegoldii strain: DSM17565 for biotransformation. The drug concentrations were measured before and after a 12-h incubation by liquid-chromatography-coupled mass spectrometry (LC–MS); settings: 2 µM
[11] = The drug is tested on Eubacterium rectale strain: ATCC33656 for biotransformation. The drug concentrations were measured before and after a 12-h incubation by liquid-chromatography-coupled mass spectrometry (LC–MS); settings: agathobacter rectalis, 2 µM
[12] = The drug is tested on Collinsella intestinalis strain: DSM13280 for biotransformation. The drug concentrations were measured before and after a 12-h incubation by liquid-chromatography-coupled mass spectrometry (LC–MS); settings: 2 µM
[13] = The drug is tested on Bacteroides sp. WH2 strain: WH2 for biotransformation. The drug concentrations were measured before and after a 12-h incubation by liquid-chromatography-coupled mass spectrometry (LC–MS); settings: bacteroides sp. wh2, 12 h, 2 µM
[14] = The drug is tested on Bacteroides ovatus strain: ATCC8483 for biotransformation. The drug concentrations were measured before and after a 12-h incubation by liquid-chromatography-coupled mass spectrometry (LC–MS); settings: 2 µM
[15] = The drug is tested on Bifidobacterium breve strain: DSM20213 for biotransformation. The drug concentrations were measured before and after a 12-h incubation by liquid-chromatography-coupled mass spectrometry (LC–MS); settings: 2 µM
[16] = The drug is tested on Ruminococcus torques strain: ATCC27756 for biotransformation. The drug concentrations were measured before and after a 12-h incubation by liquid-chromatography-coupled mass spectrometry (LC–MS); format: ADME; parameters: dose 2 uM, timepoint 0 vs 12 hours; settings: 2 µM
[17] = parabacteroides distasonis, 12 h, 2 µM
Description: The drug is tested on Parabacteroides distasonis strain: ATCC8503 for biotransformation. The drug concentrations were measured before and after a 12-h incubation by liquid-chromatography-coupled mass spectrometry (LC–MS)

[18] = The drug is tested on Bifidobacterium longum subsp. Infantis strain: CCUG52486 for biotransformation. The drug concentrations were measured before and after a 12-h incubation by liquid-chromatography-coupled mass spectrometry (LC–MS); settings: 2 µM
[19] = bacteroides thetaiotaomicron, 12 h, 2 µM
Description: The drug is tested on Bacteroides thetaiotaomicron strain: 7330 for biotransformation. The drug concentrations were measured before and after a 12-h incubation by liquid-chromatography-coupled mass spectrometry (LC–MS)

[20] = The drug is tested on Blautia hansenii strain: DSM20583 for biotransformation. The drug concentrations were measured before and after a 12-h incubation by liquid-chromatography-coupled mass spectrometry (LC–MS); settings: 2 µM

Compound	Bacterial Biotransformation [1]	Bacterial Biotransformation [2]	Bacterial Biotransformation [3]	Bacterial Biotransformation [4]	Bacterial Biotransformation [5]	Bacterial Biotransformation [6]	Bacterial Biotransformation [7]	Bacterial Biotransformation [8]	Bacterial Biotransformation [9]	Bacterial Biotransformation [10]	Bacterial Biotransformation [11]	Bacterial Biotransformation [12]	Bacterial Biotransformation [13]	Bacterial Biotransformation [14]	Bacterial Biotransformation [15]	Bacterial Biotransformation [16]	Bacterial Biotransformation [17]	Bacterial Biotransformation [18]	Bacterial Biotransformation [19]	Bacterial Biotransformation [20]
Nc1nnc(-c2cccc(Cl)c2Cl)c(N)n1 [LAMOTRIGINE]	Compound NOT metabolized	Compound NOT metabolized	Compound NOT metabolized	Compound NOT metabolized	Compound NOT metabolized	Compound NOT metabolized	Compound NOT metabolized	Compound NOT metabolized	Compound NOT metabolized	Compound NOT metabolized	Compound NOT metabolized	Compound NOT metabolized	Compound NOT metabolized	Compound NOT metabolized	Compound NOT metabolized	Compound NOT metabolized				
CN(C)CC(c1ccc(O)cc1)C1(O)CCCCC1.O=C(O)CCC(=O)O (configuration not stated) [DESVENLAFAXINE SUCCINATE]	Compound NOT metabolized	Compound NOT metabolized	Compound NOT metabolized		Compound NOT metabolized	Compound NOT metabolized	Compound NOT metabolized	Compound NOT metabolized	Compound NOT metabolized	Compound NOT metabolized		Compound NOT metabolized	Compound NOT metabolized	Compound NOT metabolized	Compound NOT metabolized	Compound NOT metabolized	Compound NOT metabolized	Compound NOT metabolized		
COCCc1ccc(OCC(O)CNC(C)C)cc1.COCCc1ccc(OCC(O)CNC(C)C)cc1.O=C(O)C(O)C(O)C(=O)O (configuration not stated) [METOPROLOL TARTRATE]		Compound NOT metabolized	Compound NOT metabolized	Compound NOT metabolized	Compound NOT metabolized	Compound NOT metabolized	Compound NOT metabolized	Compound NOT metabolized	Compound NOT metabolized	Compound NOT metabolized	Compound NOT metabolized	Compound NOT metabolized	Compound NOT metabolized	Compound NOT metabolized	Compound NOT metabolized	Compound NOT metabolized	Compound NOT metabolized	Compound NOT metabolized		
CN(C)C(=O)Oc1cccc([N+](C)(C)C)c1.[Br-] [NEOSTIGMINE BROMIDE]	Compound NOT metabolized		Compound metabolized	Compound NOT metabolized	Compound NOT metabolized	Compound NOT metabolized	Compound NOT metabolized	Compound NOT metabolized	Compound NOT metabolized	Compound NOT metabolized	Compound NOT metabolized	Compound NOT metabolized	Compound NOT metabolized	Compound metabolized	Compound NOT metabolized	Compound NOT metabolized	Compound NOT metabolized	Compound NOT metabolized	Compound metabolized	
CN1C(=O)CC(C)(c2ccccc2)C1=O (configuration not stated) [METHSUXIMIDE]	Compound NOT metabolized	Compound NOT metabolized	Compound metabolized			Compound NOT metabolized	Compound NOT metabolized	Compound NOT metabolized	Compound metabolized	Compound NOT metabolized		Compound NOT metabolized	Compound NOT metabolized	Compound NOT metabolized	Compound NOT metabolized	Compound NOT metabolized		Compound NOT metabolized	Compound NOT metabolized	
C#C[C@]1(O)CC[C@H]2[C@@H]3CCC4=CC(=O)CC[C@@H]4[C@H]3CC[C@@]21CC [LEVONORGESTREL]	Compound metabolized	Compound NOT metabolized	Compound metabolized	Compound NOT metabolized	Compound NOT metabolized	Compound NOT metabolized	Compound NOT metabolized	Compound NOT metabolized	Compound metabolized	Compound NOT metabolized	Compound NOT metabolized	Compound NOT metabolized	Compound metabolized	Compound NOT metabolized	Compound NOT metabolized		Compound metabolized		Compound metabolized	
COc1ccc(Cc2nccc3cc(OC)c(OC)cc23)cc1OC [PAPAVERINE]	Compound NOT metabolized	Compound NOT metabolized	Compound metabolized	Compound NOT metabolized	Compound NOT metabolized	Compound NOT metabolized	Compound NOT metabolized	Compound NOT metabolized	Compound NOT metabolized	Compound NOT metabolized	Compound NOT metabolized	Compound NOT metabolized	Compound NOT metabolized	Compound NOT metabolized	Compound NOT metabolized	Compound NOT metabolized		Compound NOT metabolized	Compound NOT metabolized	
CN(C(=O)CN(CCO)CC(=O)N(C)C(C)(C)Cc1ccccc1)C(C)(C)Cc1ccccc1 [OXETHAZAINE]	Compound NOT metabolized	Compound NOT metabolized				Compound NOT metabolized		Compound NOT metabolized		Compound NOT metabolized		Compound NOT metabolized	Compound NOT metabolized	Compound NOT metabolized	Compound NOT metabolized	Compound NOT metabolized		Compound NOT metabolized	Compound NOT metabolized	Compound NOT metabolized
O=C1NCC2(CCN(CCc3ccccc3)CC2)O1 [FENSPIRIDE]	Compound metabolized		Compound metabolized	Compound NOT metabolized	Compound NOT metabolized	Compound NOT metabolized	Compound NOT metabolized	Compound NOT metabolized	Compound NOT metabolized	Compound NOT metabolized	Compound NOT metabolized	Compound NOT metabolized	Compound NOT metabolized	Compound metabolized	Compound NOT metabolized	Compound NOT metabolized		Compound NOT metabolized	Compound metabolized	
